ChEMBL document CHEMBL5034030, “Dolabrane Diterpenoids from the Chinese Liverwort Notoscyphus lutescens” (J Nat Prod, 2021)
Activity calls are given as the source filed them. The rule behind the calls is not given here.

Experiments:
Format in all cases: cell-based
[1] = biological target: NAD(P)H dehydrogenase [quinone] 1 (Mus musculus) (UniProt Q64669); assay: Induction of quinone reductase activity in mouse Hepa1c1c7 cells assessed as maximum fold change at 50 uM incubated for 24 hrs by MTT based assay; settings: filed as activator
[2] = Cytotoxicity against mouse Hepa1c1c7 cells incubated for 24 hrs by MTT based assay; settings: Hepa-1c1c7, 24 h
[3] = biological target: NAD(P)H dehydrogenase [quinone] 1 (Mus musculus) (UniProt Q64669); assay: Induction of quinone reductase activity in mouse Hepa1c1c7 cells assessed as maximum fold change at 3.1 to 100 uM incubated for 24 hrs by MTT based assay; settings: dose 3.1-100 µM

Chain of NAD(P)H dehydrogenase [quinone] 1 (Mus musculus) (Q64669 whole entry): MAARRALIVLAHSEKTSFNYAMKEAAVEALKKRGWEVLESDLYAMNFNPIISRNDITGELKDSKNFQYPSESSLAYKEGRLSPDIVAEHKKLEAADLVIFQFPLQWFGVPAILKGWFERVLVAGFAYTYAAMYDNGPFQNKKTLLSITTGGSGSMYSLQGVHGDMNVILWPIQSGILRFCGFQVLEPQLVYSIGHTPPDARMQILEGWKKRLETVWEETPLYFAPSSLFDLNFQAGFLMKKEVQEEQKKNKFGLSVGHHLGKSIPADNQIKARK

Row | Structure (SMILES) | Activity [1] | Activity [3] | IC50 [2] [µM]
1 | C=C[C@@]1(C)CC[C@@]2(C)[C@@H](CC[C@]34COC(=O)[C@@H]3C[C@H](O)C[C@H]24)C1 | Active | – | > 50
2 | CC1=C(Cc2ccccc2)C(=O)O[C@H]1Cc1ccccc1 | – | inactive | > 50
3 | C=C[C@@]1(C)CC[C@]2(C)C3C[C@H]4C=C(C=O)[C@]3(CC[C@H]2C1)C(O)O4 (stereo not given in full) | Active | – | > 50
4 | C=C[C@@]1(C)CC[C@]2(C)C3=C(CC[C@H]2C1)[C@](O)(CO)[C@@H](O)[C@H](Cl)C3 | Active | – | > 50
5 | C=C[C@@]1(C)CC[C@@]2(C)[C@@H](CC[C@@]3(C)[C@@H]2CCC(=O)[C@@H]3C)C1 | – | inactive | > 50

Further lines, with some results ahead:

Row | Activity [1] | Activity [3] | Structure (SMILES) | IC50 [2] [µM]
6 | Active | – | C=C[C@@]1(C)CC[C@]2(C)C3C[C@H]4C=C(CO)[C@]3(CC[C@H]2C1)C(OC)O4 (stereo not given in full) | > 50
7 | – | inactive | C=C[C@@]1(C)CC[C@@]2(C)[C@@H](CC[C@]34CO[C@@H](OC)C3=C[C@@H](O)C[C@@H]42)C1 | > 50
8 | – | inactive | C=C[C@@]1(C)CC[C@@]2(C)[C@@H](CC[C@]34CO[C@H](OC)C3=C[C@@H](O)C[C@@H]42)C1 | > 50
9 | – | inactive | C=C[C@@]1(C)CC[C@@]2(C)[C@@H](C[C@@H]3[C@@H](O)C4=C[C@@H](O)C[C@H]2[C@@]43C)C1 | > 50
10 | – | inactive | C=C[C@@]1(C)CC[C@@]2(C)[C@@H](CC=C3[C@@H]2C[C@@H](Cl)[C@H](O)[C@@]3(O)CO)C1 | > 50
